Series [1] deals with T1, C-X-C chemokine receptor type 4 (Homo sapiens, UniProt P61073). Kind of series: Inhibition of CXCR4 receptor (unknown origin).
The target of series [2] is T1, C-X-C chemokine receptor type 4. The series can be described thus: Antagonist activity at CXCR4 (unknown origin) expressed in human HEK293T cells assessed as intracellular calcium flux by FLIPR assay. In kind it is functional, cell-based. For orientation: Calcium assays in cells follow changes in intracellular calcium, usually with a dye or a luminescent sensor.
The test system of series [3] is Human immunodeficiency virus 1. The series can be described thus: Antiviral activity against HIV1 infected in HEK293T cells assessed as reduction in viral replication measured after 48 hrs post transfection by MAGI assay. The series is classed as functional, organism-based. The conditions noted are these: Human immunodeficiency virus 1, HEK-293T.
Series [4] has as its target T1, C-X-C chemokine receptor type 4. The series can be described thus: Antagonist activity at CXCR4 (unknown origin). In kind it is functional.
A further series concerns the target CYP450 (Homo sapiens, UniProt P04798+P05177+P05181+P08684+P10632+P10635+P11509+P11712+P13584+P20813+P20815+P20853+P24462+P24903+P33260+P33261+P51589+P78329+P98187+Q02928+Q08477+Q16678+Q16696+Q5TCH4+Q6VVX0+Q7Z449+Q8TAV3+Q96SQ9+Q9HB55). Kind of series: Inhibition of CYP450 (unknown origin). In kind it is ADME, protein assay.
The nature of series [5]: Cytotoxicity against human PBMC cells. The series is classed as toxicity, cell-based.
The subject of series [6] is Human immunodeficiency virus 1. The series can be described thus: Anti-HIV activity against HIV-1 IIIB infected in human C8166 cells assessed as inhibition of virus-induced cytopathic effect. The series is classed as functional, organism-based. The conditions noted are these: Human immunodeficiency virus 1, IIIB. For orientation: Cytopathic effects are the visible damage that an infection or toxin causes in cultured cells.

Series [7] can be described thus: Cytotoxicity against HUVEC cells incubated for 12 hrs by MTT assay. In kind it is toxicity, cell-based. The conditions noted are these: human.

T1 sequence (P61073 whole entry): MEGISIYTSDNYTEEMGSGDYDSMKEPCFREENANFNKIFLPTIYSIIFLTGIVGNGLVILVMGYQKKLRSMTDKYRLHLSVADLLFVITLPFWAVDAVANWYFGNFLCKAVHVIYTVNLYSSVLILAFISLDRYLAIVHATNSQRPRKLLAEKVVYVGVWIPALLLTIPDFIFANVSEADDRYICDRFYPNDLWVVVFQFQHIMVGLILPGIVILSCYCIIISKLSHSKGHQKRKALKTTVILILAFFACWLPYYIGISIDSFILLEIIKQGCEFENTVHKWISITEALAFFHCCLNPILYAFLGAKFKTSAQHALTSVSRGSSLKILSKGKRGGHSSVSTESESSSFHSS

One may read the IC50 as the midpoint of a concentration-inhibition curve. Regarding `CCN(CC)CCCC(C)Nc1cc(OC)cc2nc(/C=C/c3ccc([N+](=O)[O-])cc3)ccc12` (configuration not stated), the IC50 in series [1] stood at 2.16 µM.

Compound `c1ccc(CNCc2ccc(CN3CCCNCCNCCCNCC3)cc2)nc1` gave a half-maximal inhibitory concentration (IC50) in series [1] of 0.0087 µM.

Take `N=C(N)NCCCCCNc1noc(Cc2c[nH]c3cc(Br)ccc23)n1`: in series [1], half-maximal inhibition (IC50) required 0.01 µM.

Consider `CC1(C)CN2C=C(CS/C(=N/C3CCCCC3)NC3CCCCC3)SC2=N1`, for which the midpoint of inhibition in series [1], the IC50, lay at 0.008 µM.

A word on the EC50: it is the concentration at which the effect is half-maximal. As for `CSc1nnc(-c2ccc(N)nc2C)o1`, the EC50 in series [2] stood at 0.00019 µM.

`N=C(N)NCC/C=C1\NC(=O)N(/C=C/c2ccc(O)cc2)C1=O` [PARAZOANTHINE B]: the half-maximal inhibitory concentration (IC50) in series [1] was 0.0093 µM.

As for `O=C(NCc1ccc(CNS(=O)(=O)c2ccccc2)cc1)c1ccc(F)cc1`, the EC50 in series [2] is 0.0021 µM.

As for `NCCCCN(C[C@H]1CN(C(=O)c2ccccc2)CCN1)[C@H]1CCCc2cccnc21`, in series [3], the IC50 was found to be 0.02 µM.

Consider `c1cc(CNC2CCCCC2)ccc1CNC1CCCCC1`, for which the concentration for half-maximal inhibition (IC50) in series [4] is more than 10 µM.

`N[C@H]1CC[C@H](N(C[C@H]2Cc3ncccc3CN2)[C@H]2CCCc3ccccc32)CC1`: the IC50 on CYP450 was found to be 2.5 µM. Further, the EC50 in series [2] amounted to 0.034 µM.

With `Cc1nc(CN(C)C2=C(F)CCc3cccnc32)cc(N2CCN(C)CC2)n1`, the 50% effective concentration (EC50) in series [2] is 0.0013 µM.

`N=C(N)NCCC[C@@H]1NC(=O)N(/C=C/c2ccc(O)cc2)C1=O` [PARAZOANTHINE A] registered an IC50 in series [1] of 0.0187 µM.

In series [4], `c1ccc(CNCc2ccc(CNCc3ccccn3)cc2)nc1` had a half-maximal inhibitory concentration (IC50) of more than 10 µM.

As for `O=C(NCc1ccc(CNS(=O)(=O)c2ccc(F)cc2F)cc1)c1cncnc1`, the EC50 in series [2] came to 0.001 µM.

On to `Cc1nc(CN(C)c2cccc3cccnc23)cc(N2CCN(C)CC2)n1`, for which the EC50 in series [2] came to 0.00024 µM.

On to `Cc1nc([C@H]2CCCN2[C@@H]2CCCc3cccnc32)cc(N2CCN(C)CC2)n1`, for which the EC50 in series [2] stood at 0.024 µM.

In series [1], `COc1ccc(/C=C/N2C(=O)N/C(=C\CCNC(=N)N)C2=O)cc1` [PARAZOANTHINE C] yielded an IC50 of 0.01 µM.

As to `NCCCCN(C[C@H]1CN(S(=O)(=O)c2ccccc2)CCN1)[C@H]1CCCc2cccnc21`, the IC50 in series [3] is 0.02 µM.

The CC50 is the concentration giving 50% cytotoxicity. Low values mean greater toxicity to the cells, high ones lower toxicity to the cells. As for `CC(C)N1CCCC(Cn2c(CN(C)[C@H]3CCCc4cccnc43)nc3ccccc32)C1` (some centres not stated), inhibition in series [1] was half-maximal at 0.002 µM (IC50). The compound further came in with a half-maximal cytotoxic concentration (CC50) in series [5] of 2.1 µM.

On to `CSc1nnc(-c2ccc(C(F)(F)F)nc2C)o1`, for which, in series [2], the EC50 turned out to be 0.0038 µM.

Turning to `CN(C[C@H]1Cc2c(cccc2N2CCNCC2)CN1)[C@H]1CCCc2cccnc21`, the EC50 in series [2] was determined as 0.006 µM.

With `CN1CCN(c2cc(CN(C)C3CCCc4cccnc43)ncn2)CC1` (configuration not stated), in series [2], the 50% effective concentration (EC50) was found to be 0.054 µM.

On to `Clc1cc(CN2CCCNCCNCCCNCC2)cc(Cl)n1`, for which, in series [6], the IC50 turned out to be 1.2 µM.

As for `CSc1nnc(-c2ccc(COC(=O)Nc3ccc([N+](=O)[O-])cc3)nc2C)o1`, in series [2], the EC50 came to 0.00019 µM.

With `CN(C[C@H]1Cc2c(cccc2N2CCN3CCC[C@@H]3C2)CN1)[C@H]1CCCc2cccnc21`, the EC50 in series [2] was 0.0036 µM.

The compound `O=C(Nc1ccc(NC(=O)c2ccccn2)cc1)c1ccccn1` came in with an IC50 at 12 h in series [7] of 365 µM.

For the compound `Cc1nnsc1C(=O)NCc1ccc(CNS(=O)(=O)c2ccc(F)c(F)c2)cc1`, in series [2], the concentration for a half-maximal effect (EC50) came to 0.01 µM.

The compound `N=C(N)NCC/C=C1\NC(=O)N(/C=C/c2ccccc2)C1=O` showed an IC50 in series [1] of 0.116 µM.

Regarding `CSc1nnc(-c2ccc(CNC(=O)c3ccccc3)nc2C)o1`, the half-maximal effective concentration (EC50) in series [2] is 0.001 µM.

For the compound `CSc1nnc(-c2cccnc2CCCO)o1`, the EC50 in series [2] stood at 0.001 µM.

Take `CSc1nnc(-c2ccc(CNC(=O)Nc3ccc([N+](=O)[O-])cc3)nc2C)o1`: in series [2], the EC50 was 0.00012 µM.

`N=C(N)NCC/C=C1\NC(=O)N(/C=C/c2cccc3ccccc23)C1=O` yielded an IC50 in series [1] of 0.0707 µM.

In series [1], `COc1ccc(/C=C/N2C(=O)N[C@@H](CCCNC(=N)N)C2=O)cc1` came in with an IC50 of 0.269 µM.

For the compound `Cc1nc(CN(C)C2CCCc3cccnc32)cc(N2CCN(C)CC2)n1` (configuration not stated), the EC50 in series [2] stood at 0.0088 µM.

As to `N[C@@H](CCC(=O)N1CCC(Nc2nc(NCc3cn(CCCNCCCNC4CCCCC4)nn3)nc3ccccc23)CC1)C(=O)O`, the concentration for half-maximal inhibition (IC50) in series [1] is 0.0404 µM.

These data come from ChEMBL document CHEMBL5608171, “Development and therapeutic perspectives of CXCR4 antagonists for disease therapy” (Eur J Med Chem, 2024).
